Results on 38 compounds are retold here after ChEMBL document CHEMBL1795321, “Synthesis and in vitro evaluation of ambrisentan analogues as potential endothelin receptor antagonists” (Bioorg Med Chem Lett, 2011).

SMILES strings stand for the structures. Activity calls are given as the source filed them. No cut-off for these calls is given here.

The target in this assay is T1, Endothelin receptor type A (Oryctolagus cuniculus) (UniProt A5A8K3).
T1 sequence (whole entry): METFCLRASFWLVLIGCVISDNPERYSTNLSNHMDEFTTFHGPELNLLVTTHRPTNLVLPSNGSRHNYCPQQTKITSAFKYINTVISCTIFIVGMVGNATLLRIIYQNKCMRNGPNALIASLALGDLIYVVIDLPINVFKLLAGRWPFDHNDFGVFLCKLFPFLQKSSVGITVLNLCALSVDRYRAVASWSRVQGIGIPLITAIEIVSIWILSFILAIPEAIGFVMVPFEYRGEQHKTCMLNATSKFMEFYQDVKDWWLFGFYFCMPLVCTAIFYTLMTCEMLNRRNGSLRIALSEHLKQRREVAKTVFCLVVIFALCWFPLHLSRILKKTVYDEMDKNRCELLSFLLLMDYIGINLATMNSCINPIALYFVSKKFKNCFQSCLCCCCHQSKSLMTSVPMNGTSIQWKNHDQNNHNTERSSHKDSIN
Kind of assay: Inhibition of endothelin A receptor in New Zealand white rabbit aortic rings assessed as inhibition of endothelin-1-induced vascular contraction at 10^-6 M.
For `CCCC(=O)OCC(c1ccccc1)(c1ccccc1)C(Oc1nc(C)cc(C)n1)C(=O)O` (stereo not drawn), the inhibition is 1.11%. With `CCCOCC(c1ccccc1)(c1ccccc1)C(Oc1nc(C)cc(C)n1)C(=O)O` (stereo not drawn) the entry was “inactive”. Regarding `COc1ccccc1Oc1c(NS(=O)(=O)c2ccc(C(C)(C)C)cc2)nc(-c2ncccn2)nc1OCCO`, the inhibition came to 22.5%.

`COC(c1ccccc1)(c1ccccc1)[C@H](Oc1nc(C)cc(C)n1)C(=O)O`: the inhibition is 43.2%. As for `CCC(=O)OCC(c1ccccc1)(c1ccccc1)C(Oc1nc(C)cc(C)n1)C(=O)O` (stereo not drawn), the inhibition stood at 21.7%. Next, `Cc1cc(C)nc(OC(C(=O)O)C(C#N)(c2ccccc2)c2ccccc2)n1` (racemic): 42.2%; `CCCCOCC(c1ccccc1)(c1ccccc1)C(Oc1nc(C)cc(C)n1)C(=O)O` (stereo not drawn): 15.1%. Next, `C=CCOCC(c1ccccc1)(c1ccccc1)C(Oc1nc(C)cc(C)n1)C(=O)O` (stereo not drawn): 23.4%. Next, `Cc1cc(C)nc(OC(C(=O)O)C(COC(=O)C(C)(C)C)(c2ccccc2)c2ccccc2)n1` (stereo not drawn): “inactive”; `Cc1cc(C)nc(OC(C(=O)O)C(COC(=O)CCCC(=O)O)(c2ccccc2)c2ccccc2)n1` (stereo not drawn): 3.47%. As for `CCCCCCCC(=O)OCC(c1ccccc1)(c1ccccc1)C(Oc1nc(C)cc(C)n1)C(=O)O` (stereo not drawn), the inhibition worked out at 5.61%. Next, `CCOC(=O)OCC(c1ccccc1)(c1ccccc1)C(Oc1nc(C)cc(C)n1)C(=O)O` (stereo not drawn): 15.5%. Next, `Cc1cc(C)nc(OC(C(=O)O)C(COC(=O)CC(C)C)(c2ccccc2)c2ccccc2)n1` (stereo not drawn): 21.8%. With `COc1ccc(C(=O)OCC(c2ccccc2)(c2ccccc2)C(Oc2nc(C)cc(C)n2)C(=O)O)cc1` (stereo not drawn) the entry was “inactive”. Turning to `CCC(C)(C)C(=O)OCC(c1ccccc1)(c1ccccc1)C(Oc1nc(C)cc(C)n1)C(=O)O` (stereo not drawn), the inhibition entry was “inactive”. Next, `Cc1cc(C)nc(OC(C(=O)O)C(COC(=O)OC(C)(C)C)(c2ccccc2)c2ccccc2)n1` (stereo not drawn): “inactive”.

In the case of `Cc1cc(C)nc(OC(C(=O)O)C(COC(=O)Cc2ccccc2)(c2ccccc2)c2ccccc2)n1` (stereo not drawn), the inhibition result was “inactive”.

Consider `Cc1cc(C)nc(OC(C(=O)O)C(COC(=O)c2cccnc2)(c2ccccc2)c2ccccc2)n1` (stereo not drawn), for which the inhibition stood at 7.82%. `Cc1cc(C)nc(OC(C(=O)O)C(COC(=O)CCC(=O)O)(c2ccccc2)c2ccccc2)n1` (stereo not drawn): the inhibition result is “inactive”.

Consider `Cc1cc(C)nc(OC(C(=O)O)C(COC(=O)N(C)C)(c2ccccc2)c2ccccc2)n1` (stereo not drawn), for which the inhibition result was “inactive”. With `COCC(c1ccccc1)(c1ccccc1)C(Oc1nc(C)cc(C)n1)C(=O)O` (stereo not drawn) the entry was “inactive”; with `Cc1cc(C)nc(OC(C(=O)OCc2ccccc2)C(CO)(c2ccccc2)c2ccccc2)n1` (stereo not drawn), “inactive”.

For `Cc1cc(C)nc(OC(C(=O)O)C(Cc2ccccc2)(c2ccccc2)c2ccccc2)n1` (stereo not drawn), the inhibition is 11.8%. With `Cc1cc(C)nc(OC(C(=O)O)C(COC(=O)c2ccccc2)(c2ccccc2)c2ccccc2)n1` (stereo not drawn) the figure was 8.09%. With `COC(=O)OCC(c1ccccc1)(c1ccccc1)C(Oc1nc(C)cc(C)n1)C(=O)O` (stereo not drawn) the figure was 3.4%; with `CCCCC(=O)OCC(c1ccccc1)(c1ccccc1)C(Oc1nc(C)cc(C)n1)C(=O)O` (stereo not drawn), 5.88%; with `Cc1ccc(S(=O)(=O)OCC(c2ccccc2)(c2ccccc2)C(Oc2nc(C)cc(C)n2)C(=O)O)cc1` (stereo not drawn), “inactive”. With `Cc1cc(C)nc(OC(C(=O)O)C(COC(=O)OCC(C)C)(c2ccccc2)c2ccccc2)n1` (stereo not drawn) the figure was 13.7%; with `Cc1cc(C)nc(OC(C(=O)O)C(COCc2ccccc2)(c2ccccc2)c2ccccc2)n1` (stereo not drawn), “inactive”; with `Cc1cc(C)nc(OC(C(=O)O)C(COC(=O)OC(C)C)(c2ccccc2)c2ccccc2)n1` (stereo not drawn), 22%. For the compound `CCOCC(c1ccccc1)(c1ccccc1)C(Oc1nc(C)cc(C)n1)C(=O)O` (stereo not drawn), the inhibition is 20.6%.

For the compound `CCCCCC(=O)OCC(c1ccccc1)(c1ccccc1)C(Oc1nc(C)cc(C)n1)C(=O)O` (stereo not drawn), the inhibition entry was “inactive”. With `Cc1cccc(C(=O)OCC(c2ccccc2)(c2ccccc2)C(Oc2nc(C)cc(C)n2)C(=O)O)c1` (stereo not drawn) the entry was “inactive”; with `Cc1cc(C)nc(OC(C(=O)O)C(CO)(c2ccccc2)c2ccccc2)n1` (stereo not drawn), 23.2%; with `CC(=O)OCC(c1ccccc1)(c1ccccc1)C(Oc1nc(C)cc(C)n1)C(=O)O` (stereo not drawn), 9.64%. With `Cc1cc(C)nc(OC2C(=O)OCC2(c2ccccc2)c2ccccc2)n1` (stereo not drawn) the figure was 14.3%; with `Cc1cc(C)nc(OC(C(=O)O)C(COC(=O)c2ccncc2)(c2ccccc2)c2ccccc2)n1` (stereo not drawn), 13.2%.

`Cc1cc(C)nc(OC(C(=O)O)C(COC(=O)CCc2ccccc2)(c2ccccc2)c2ccccc2)n1` (stereo not drawn): the inhibition result was “inactive”.

By inhibition is commonly meant the relative decrease from the control value, in per cent.
